Consider two molecules from patent US8058507B2, “HOPM1 mediated disease resistance to Pseudomonas syringae in Arabidopsis” (priority 2007, dated 2011).

Experiment [1] concerns Pst DC3000 ΔCEL mutant. Description: BFA treatment of bacteria-infiltrated detached leaves: bacterial multiplication and disease symptoms. It counts as in vivo, Pseudomonas syringae. The procedure: (§1) A standard enumeration procedure involves pathogen inoculation, using any one of described methods, supra, followed by assaying bacterial populations present within host tissues at regular intervals. The population present within the tissue was calculated based on the dilution factor divided by the amount of tissue present in each sample. Plotting log (culturable bacterial number/cm^2 leaf tissue) against time (usually in days) after pathogen inoculation produced an unfitted curve, i.e. growth curve. For a review of methods, see, Katagiri et al., in The Arabidopsis Book, Somerville, Meyerowitz, Eds. (American Society of Plant Biologists, Rockville, Md., 2002), website://dx.doi.org/10.1199/tab.0039; herein incorporated by reference.
(§2) Leaves were harvested and surface sterilized as follows: 1) whole leaves were removed from a host plant and gently mixed in a 70% ethanol solution for 1 minute. Leaves were blotted briefly on paper towels then rinsed in sterile distilled water for 1 minute, then blotted dry on paper towels. Leaf disks were excised from leaves with a 0.5 cm^2 or smaller cork borer, depending on the size of the sample leaves; 2) leaf disks from the leaves of 2 or more independent replicate plants were pooled for a single tissue sample and placed in a 1.5-mL microfuge tube with 100 μL sterile distilled water, the amount of leaf tissue per tube was recorded as leaf surface area. Three or more samples were harvested for each time point. Steps 1 and 2 were repeated for each sample; 3) Tissue samples were ground with a microfuge tube plastic pestle, by hand or by using a small hand-held electric drill. […] The number of serial dilutions necessary to get countable colonies were determined for each sample, however dilutions to 10^−7 were usually sufficient for any bacterial strain; 7) The samples were plated on the appropriate medium (e.g., Low salt Luria Bertani) supplemented with the necessary antibiotics to select for the specific inoculated bacterial strain. Plating was done in the traditional way (100 μL of a single sample was spread on a single plate) or several 10 μL aliquots of the 1:10 serial dilutions were spotted on to a single plate and allowed to dry onto the surface; and 8) Plates were placed at 30° C. for approximately 2 days with a cfu value determined for each dilution of each sample. […]
(§3) Leaves were infiltrated with 1×10^6 cfu/ml of bacteria, detached, and placed in microtiter wells with petioles immersed in the 36 μM BFA (Sigma Co.) solution. […] Bacterial populations and disease symptoms were determined on day 0 and day three.

In experiment [2] the test system is Pst DC3000. Described as above. To be noted: Col-0 gl1 plants treated with water or BFA (36 μM). It counts as in vivo, Pseudomonas syringae. The procedure:
as §1, §2, §3

The subject of experiment [3] is hrcC mutant. The description is as above. It is filed as in vivo, Pseudomonas syringae. The note with it: Col-0 gl1 plants treated with water or BFA (36 μM). The procedure:
as §1, §2, §3

In experiment [4] the test system is Pst DC3000 ΔCEL mutant-pORF43 bacteria. Description: Bacterial multiplication and disease symptoms in HopM1 transgenic Arabidopsis plants. It counts as in vivo, Pseudomonas syringae. The procedure: Following inoculation, infected plants were monitored daily over a 3- to 4-day period for symptom development and bacterial multiplication. For experiments described in FIGS. 1 and 5, plants were sprayed with 30 μM dexamethasone (DEX) 24 h before bacterial inoculation (1×10^6 cfu/ml).
as §2, with “point.” for “point. Steps 1 and 2 were repeated for each sample; 3) Tissue samples were ground with a microfuge tube plastic pestle, by hand or by using a small hand-held electric drill.”, “strain.” for “strain. Plating was done in the traditional way (100 μL of a single sample was spread on a single plate) or several 10 μL aliquots of the 1:10 serial dilutions were spotted on to a single plate and allowed to dry onto the surface; and 8) Plates were placed at 30° C. for approximately 2 days with a cfu value determined for each dilution of each sample.”

Experiment [5] deals with T1, AtMIN7-HA (Arabidopsis thaliana, UniProt F4IXW2, DEL212-213/INS429[…]).
T1 construct: expressed in transfected cells; host or cells: Nicotiana benthamiana leaves, Agrobacterium tumefaciens C58C1 co-infiltration (pBI121-AtMIN or pBAR1-AtMIN, CaMV 35S promoter)
T1 sequence (F4IXW2 with tags, fused parts or gaps DEL212-213/INS429[withheld]): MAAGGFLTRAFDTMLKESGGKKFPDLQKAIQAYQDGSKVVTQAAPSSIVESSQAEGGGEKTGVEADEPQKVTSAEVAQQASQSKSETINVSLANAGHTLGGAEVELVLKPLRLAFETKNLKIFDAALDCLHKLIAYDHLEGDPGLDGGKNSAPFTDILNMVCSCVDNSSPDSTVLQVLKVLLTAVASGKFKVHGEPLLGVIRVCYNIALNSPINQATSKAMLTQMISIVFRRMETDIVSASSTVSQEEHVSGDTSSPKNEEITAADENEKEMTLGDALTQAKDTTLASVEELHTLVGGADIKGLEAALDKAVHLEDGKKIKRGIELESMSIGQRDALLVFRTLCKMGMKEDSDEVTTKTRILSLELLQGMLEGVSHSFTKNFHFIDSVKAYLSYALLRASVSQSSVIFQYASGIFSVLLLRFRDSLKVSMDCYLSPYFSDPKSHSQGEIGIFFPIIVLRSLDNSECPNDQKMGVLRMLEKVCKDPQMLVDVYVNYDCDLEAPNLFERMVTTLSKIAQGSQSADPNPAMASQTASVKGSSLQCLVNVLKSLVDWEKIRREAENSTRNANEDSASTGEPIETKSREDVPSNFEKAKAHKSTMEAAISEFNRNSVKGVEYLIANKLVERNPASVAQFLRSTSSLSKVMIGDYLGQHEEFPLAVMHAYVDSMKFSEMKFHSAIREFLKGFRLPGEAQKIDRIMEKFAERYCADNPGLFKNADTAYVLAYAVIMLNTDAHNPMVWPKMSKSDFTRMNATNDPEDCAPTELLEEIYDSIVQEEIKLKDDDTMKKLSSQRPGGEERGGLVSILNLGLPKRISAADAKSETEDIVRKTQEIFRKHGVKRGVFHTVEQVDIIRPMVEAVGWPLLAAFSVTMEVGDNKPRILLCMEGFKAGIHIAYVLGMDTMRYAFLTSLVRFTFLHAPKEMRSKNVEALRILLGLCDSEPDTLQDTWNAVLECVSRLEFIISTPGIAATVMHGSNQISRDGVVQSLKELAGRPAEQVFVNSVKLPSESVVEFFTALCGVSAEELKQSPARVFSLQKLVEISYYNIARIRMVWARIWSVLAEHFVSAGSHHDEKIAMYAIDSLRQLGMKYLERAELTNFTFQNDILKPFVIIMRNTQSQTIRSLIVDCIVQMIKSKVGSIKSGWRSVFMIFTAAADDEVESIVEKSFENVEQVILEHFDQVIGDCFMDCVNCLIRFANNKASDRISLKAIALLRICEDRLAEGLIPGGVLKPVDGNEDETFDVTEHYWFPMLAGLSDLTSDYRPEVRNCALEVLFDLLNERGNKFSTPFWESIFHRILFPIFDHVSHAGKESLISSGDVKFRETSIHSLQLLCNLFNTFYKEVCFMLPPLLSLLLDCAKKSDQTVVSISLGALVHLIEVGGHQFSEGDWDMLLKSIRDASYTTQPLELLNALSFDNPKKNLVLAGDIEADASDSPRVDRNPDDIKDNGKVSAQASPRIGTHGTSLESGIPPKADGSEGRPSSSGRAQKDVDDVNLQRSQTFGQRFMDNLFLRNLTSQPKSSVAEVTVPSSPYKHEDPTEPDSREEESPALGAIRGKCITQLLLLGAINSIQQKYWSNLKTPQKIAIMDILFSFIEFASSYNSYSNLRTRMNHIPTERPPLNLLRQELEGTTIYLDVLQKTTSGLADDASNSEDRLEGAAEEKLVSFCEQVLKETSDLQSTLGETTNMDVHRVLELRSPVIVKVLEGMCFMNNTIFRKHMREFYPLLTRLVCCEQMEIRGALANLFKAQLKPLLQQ
Description: Protein pull-down assay in N. benthamiana leaves. It counts as binding. The note with it: Ni-NTA pull-down, immunoblot. The text has this:
N. benthamiana plants were transiently transformed with HopM1 and AtMIN proteins. In brief, fully expanded N. benthamiana leaves were co-infiltrated with Agrobacterium tumefaciens C58 C1 (for an example of co-infiltration techniques, see, Hellens, et al. (2005) Plant Methods, 1:13; herein incorporated by reference) comprising plasmids and genes described herein (for example, see, Bechtold, et al. (1993) Comptes Rendus De L Academie Des Sciences Serie Iii-Sciences De La Vie-Life Sciences 316(10):1194-1199; herein incorporated by reference).
Protein pull-down analysis methods: N. benthamiana leaf discs were homogenized in lysis buffer (50 mM Tris-HCl pH=8.0, 250 mM NaCl, 10 mM β-mercaptoethanol, 1% Triton X100, 1 mM PMSF, plant protease inhibitor cocktail [Sigma Co.]). Total protein extracts were collected after centrifugation of the homogenate at 20,000-×g for 15 min at 4° C. to remove insoluble materials. The supernatant was incubated with Ni-NTA agarose beads (Qiagen) with gentle shaking for 1 hour at 4° C., followed by centrifugation at 15,000-×g for 1 min to pull down 6×His-HopM1 and its interacting proteins. Beads were then washed three times with lysis buffer and resuspended in 1×SDS-PAGE sample buffer for SDS-PAGE gel and/or immunoblot analyses. […] AtMIN10-HA was detected using the HA epitope antibody.

Experiment [6] concerns Arabidopsis Y2H cDNA library. Briefly: Yeast two-hybrid (Y2H) screening with HopM1 baits. It counts as binding. The note with it: protein used as bait. The text has this:
A LexA-based yeast two-hybrid system was used for screening an Arabidopsis Y2H cDNA library using full-length HopM1 and the dominant-negative domain of HopM1 (HopM11-300) as bait, in separate screenings. This system was based upon a pGilda Lex A expression vector (CLONTECHniques, OCTOBER 1999 p. 26-27, Clontech Laboratories Inc.; herein incorporated by reference in its entirety) for expressing HopM1 proteins in combination with a lacZ reporter gene on a separate plasmid that autonomously replicated in yeast (CLONTECHniques, OCTOBER 1999 p. 26-27, Clontech Laboratories Inc.; herein incorporated by reference in its entirety), see below for addition information (see, MATCHMAKER LexA Two-Hybrid System Catalog #K1609-1 and MATCHMAKER LexA Libraries User Manual (PT3040-1) Version It PR67300 and (Yeast Protocols Handbook, Protocol # PT3024-1 Version # PR13103, published 14 Mar. 2001; herein incorporated by reference in its entirety).
hopM1 DNA fragments were amplified by PCR using the primers listed below and standard PCR procedures then fragments were isolated and cloned into a bait vector pGilda Lex A (resistance to ampicillin (100 μg/ml) to E. coli hosts; Protocol # PT3147-5; Version # PR81829; Clontech Laboratories, Inc.; herein incorporated by reference in its entirety). […]

As for `C[C@H]1CCC/C=C/[C@@H]2C[C@H](O)C[C@H]2[C@H](O)/C=C/C(=O)O1` [BFA, Brefeldin A], in experiment [1] (36 μM BFA, wild-type Col-0 gl1 plants, day three), the “virulence (both multiplication and disease symptoms)” value was “significantly enhanced”. Besides, in experiment [1] (BFA-treated leaves), the “restoration of the virulence of the ΔCEL mutant, compared with AtMIN7 KO plants” value is “greater than that in the AtMIN7 KO plants”. For the same molecule, the “multiplication or disease symptoms” value in experiment [2] and in experiment [3] was “no significant differences” each time.

B1: HopM11-300: N-terminal protective fragment of HopM1, amino acids 1-300 (SEQ ID NO:82) (protein, listed as Pseudomonas syringae)
chain: MISSRIGGAGGVELSRVNQQHDTVPAQTAHPNAVTAGMNPPLTPDQSGSHATESSSAGAARLNVAARHTQLLQAFKAEHGTAPVSGAPMISSRAALLIGSLLQAEPLPFEVMAEKLSPERYQLKQFQGSDLQQRLEKFAQPGQIPDKAEVGQLIKGFAQSVADQLEHFQLMHDASPATVGQHAKADKATLAVSQTALGEYAGRASKAIGEGLSNSIASLDEHISALDLTLQDAEQGNKESLHADRQALVDAKTTLVGLHADFVKSPEAKRLASVAAHTQLDNVVSDLVTARNTVGGWKGA
modifications: 6xHis tag
Regarding B1, in experiment [4] (fragment expressed in transgenic Arabidopsis), the “effect on the function of full-length HopM1 delivered from the infecting bacteria” value is given as “dominant-negative effect”. For the same molecule, the “disease symptoms (necrosis and chlorosis) and bacterial multiplication” value in experiment [4] (transgenic Arabidopsis vs Col-0 gl1 or plants expressing other truncated derivatives) is listed as “significantly reduced”. Moreover, the “physical interaction with AtMIN7-HA” value in experiment [5] is “physical interaction”. Besides, in experiment [6], the “interactors recovered in Y2H screen” value is reported as 21.
